Assay results as given in patent US4257941A, “Polycyclic nitrogen-containing compounds” (BASF Aktiengesellschaft, priority 1976, dated 1981).
Like-named read-outs stand apart in the source and are kept apart here.

Columns and labels:
Poa annua = test: Herbicidal action (Example 25); assay type: in vivo; settings: Poa annua, pre-emergence, read-out: percentage damage
Protocol: (§1) Paraffined paper cups having a volume of 170 cm^3 were filled with a sandy loam, and the seeds of the test plants sown therein, separated by species. (The species are also listed below.)
(§2) In the first group, treatment was effected immediately after sowing and before germination of the seeds (preemergence treatment=soil treatment). Shallow sown seeds not completely covered with soil came into contact with the active ingredients. In the second group, the plants were treated postemergence (=leaf treatment) at a growth height of from 2 to 8 cm, depending on the rate of growth and shape of the species concerned. The compounds were suspended or emulsified in water and applied with the aid of fine nozzles. The soil and plants were thoroughly sprinkler irrigated for the duration of the experiment. The cups were placed in the greenhouse and kept in the temperature range 12°-25° C. or 18°-35° C., depending on the temperature requirements of the various species. After 2 to 6 weeks the action was assessed visually on a 0 to 100 scale, 0 denoting no damage and 100 denoting plants not germinated or completely destroyed.

Setaria faberii = test: Herbicidal action (Example 25); assay type: in vivo; settings: preemergence
Protocol: as §1, §2

Sorghum halepense = test: Herbicidal action (Example 25); assay type: in vivo; settings: preemergence
Protocol: as §1, §2

Sinapis alba = test: Herbicidal action (Example 25); assay type: in vivo; settings: pre-emergence, read-out: percentage damage
Protocol: as §1, §2

Stellaria media = test: Herbicidal action (Example 25); assay type: in vivo; settings: preemergence, 2.0 kg/ha
Protocol: as §1, §2

Panicum virgatum = test: Herbicidal action (Example 25); assay type: in vivo; settings: preemergence, 2.0 kg/ha
Protocol: as §1, §2

Matricaria chamomilla = test: Herbicidal action (Example 25); assay type: in vivo; settings: preemergence, 2.0 kg/ha
Protocol: as §1, §2

Avena sativa = test: Growth height of Gramineae (Example 11, Table B); assay type: in vivo; settings: Avena sativa, 3.0 kg/ha, 0 = no inhibition, 100 = no growth, read-out: growth inhibition compared with untreated control
From the text: (§3) The vessels used for the experiments were plastic pots having a volume of 1,130 cm^3 (Table A) or paraffined paper cups having a volume of 170 cm^3 (Table B). The pots and cups were filled with a sandy loam. The seeds of the test plants-separated by species-were sown shallow. Preemergence treatment (soil treatment) was effected immediately after sowing and before germination of the seeds. Seeds lying on the surface came into contact with the active ingredients. Postemergence treatment (leaf treatment) took place at an average growth height of the plants (depending on the rate of growth) of from 6 to 10 cm. The substances were suspended, emulsified or dissolved in water as diluent and applied by means of fine nozzles. The vessels were kept in the greenhouse in a temperature range of 12° C. to 25° C., and were regularly sprinkler irrigated for the duration of the experiment. The observation period was 6 to 8 weeks.

Hordeum vulgare = test: Growth height of Gramineae (Example 11, Table B); assay type: in vivo; settings: Hordeum vulgare, 3.0 kg/ha, 0 = no inhibition, 100 = no growth, read-out: growth inhibition compared with untreated control
From the text: as §3

Lolium multifl. = test: Growth height of Gramineae (Example 11, Table B); assay type: in vivo; settings: Lolium, 3.0 kg/ha, 0 = no inhibition, 100 = no growth, read-out: growth inhibition compared with untreated control
From the text: as §3

Cyperus esculentus = test: Herbicidal action (Example 25); assay type: in vivo; settings: preemergence
Protocol: as §1, §2

Cynodon dactylon = test: Herbicidal action (Example 25); assay type: in vivo; settings: preemergence
Protocol: as §1, §2

Alopecurus myosuroides = test: Herbicidal action (Example 25); assay type: in vivo; settings: Alopecurus myosuroides, pre-emergence, read-out: percentage damage
Protocol: as §1, §2

Ipomoea spp. = test: Herbicidal action (Example 25); assay type: in vivo; settings: preemergence
Protocol: as §1, §2

sugar beet = test: Sugar content of sugar beet in the open (Example 21); assay type: in vivo, Beta vulgaris sap. altissima (Kleinwanzleben KAWPoly); settings: 2.0 kg/ha; for Sugar content in freshly lifted beet, absolute: control 12.6 a; for Sugar content in freshly lifted beet, relative increase: control 100
From the text: The crop plant was Beta vulgaris sap. altissima, variety "Kleinwanzleben KAWPoly". The soil was a sandy loam (1.5% organic substance, pH 5.7). Mineral fertilization totalled 400 kg N, 100 kg P2 O5, and 100 kg K2 O per hectare. For chemical weed control, 2.5 kg/ha of 1-phenyl-4-amino-5-chloropyridazone-(6) was applied before emergence of the beet plants. Aphids were controlled with dimethoate (O,O-dimethyl-S-(N-methylcarbonylmethyl)-phosphorus dithioate). Sowing took place on Mar. 10, 1975. The beets were lifted comparatively early on Sept. 29, 1975. The active ingredient was applied with the aid of spraying equipment with fine nozzles, mounted on a tractor. The amount of water used for dispersion purposes was 780 liters/ha. Treatment was effected on 2 different dates and on different plots:
I--the beet had 5 to 7 true leaves;
II--five weeks before harvesting, on the well developed plants. The sugar content was determined from fresh beets immediately after lifting.

Euphorbia spp. = test: Herbicidal action (Example 25); assay type: in vivo; settings: preemergence
Protocol: as §1, §2

Digitaria sanguinalis = test: Herbicidal action (Example 25); assay type: in vivo; settings: preemergence
Protocol: as §1, §2

O=S(=O)(c1ccccc1)N1C2C3CC(C4N=NC34)C21 (stereo not drawn) [drawing 419]
pest or weed control at 2000 g/ha (Poa annua; preemergence, 2.0 kg/ha): 70%
percentage damage (Setaria faberii; 2.0 kg/ha): 40 percentage damage
percentage damage (Setaria faberii; 4.0 kg/ha): 100 percentage damage
percentage damage (Sorghum halepense; 2.0 kg/ha): 53 percentage damage
percentage damage (Sorghum halepense; 4.0 kg/ha): 50 percentage damage
pest or weed control at 2000 g/ha (Sinapis alba; preemergence, 2.0 kg/ha): 90%

c1ccc(N2C3C4CC(C5N=NC45)C32)cc1 (stereo not drawn) [drawing 416]
percentage damage (Stellaria media): 100 percentage damage
pest or weed control at 2000 g/ha (Poa annua): 57%
percentage damage (Setaria faberii; 2.0 kg/ha): 59 percentage damage
percentage damage (Setaria faberii; 4.0 kg/ha): 65 percentage damage
percentage damage (Panicum virgatum): 100 percentage damage
percentage damage (Sorghum halepense; 2.0 kg/ha): 74 percentage damage
percentage damage (Sorghum halepense; 4.0 kg/ha): 78 percentage damage
pest or weed control at 2000 g/ha (Sinapis alba): 74%
percentage damage (Matricaria chamomilla): 95 percentage damage

Brc1ccc(N2C3C4CC(C5N=NC45)C32)cc1 (stereo not drawn)
inhibition at 3000 g/ha (Avena sativa; leaf treatment): 50%
inhibition at 3000 g/ha (Avena sativa; soil treatment): 40%
inhibition at 3000 g/ha (Hordeum vulgare; leaf treatment): 50%
inhibition at 3000 g/ha (Hordeum vulgare; soil treatment): 60%
inhibition at 3000 g/ha (Lolium multifl.; leaf treatment): 50%
inhibition at 3000 g/ha (Lolium multifl.; soil treatment): 50%

c1ccc(CN2N=NC3C4CC(C5N=NC45)C32)cc1 (stereo not drawn) [drawing 412]
percentage damage (Cyperus esculentus; 2.0 kg/ha): 55 percentage damage
percentage damage (Cyperus esculentus; 4.0 kg/ha): 55 percentage damage
percentage damage (Cynodon dactylon; 2.0 kg/ha): 80 percentage damage
percentage damage (Cynodon dactylon; 4.0 kg/ha): 100 percentage damage
pest or weed control at 2000 g/ha (Alopecurus myosuroides; preemergence, 2.0 kg/ha): 55%
pest or weed control at 4000 g/ha (Alopecurus myosuroides; preemergence, 4.0 kg/ha): 70%
percentage damage (Ipomoea spp.; 2.0 kg/ha): 0 percentage damage
percentage damage (Ipomoea spp.; 4.0 kg/ha): 10 percentage damage

Brc1ccc(N2N=NC3C4CC(C5N=NC45)C32)cc1 (stereo not drawn) [drawing 401]
Sugar content in freshly lifted beet, absolute (sugar beet; date I (20.05.75), letter = Duncan group): 14.35%
Sugar content in freshly lifted beet, relative increase (sugar beet; date I): 113
Sugar content in freshly lifted beet, absolute (sugar beet; date II (21.08.75), letters = Duncan group): 13.85%
Sugar content in freshly lifted beet, relative increase (sugar beet; date II): 110

Cc1ccc(N2N=NC3C4CC(C5N=NC45)C32)cc1 (stereo not drawn) [drawing 418]
percentage damage (Stellaria media): 13 percentage damage
pest or weed control at 2000 g/ha (Poa annua; preemergence, 2.0 kg/ha): 65%
percentage damage (Setaria faberii; 2.0 kg/ha): 55 percentage damage
percentage damage (Setaria faberii; 4.0 kg/ha): 100 percentage damage
percentage damage (Sorghum halepense; 2.0 kg/ha): 55 percentage damage
percentage damage (Sorghum halepense; 4.0 kg/ha): 55 percentage damage
pest or weed control at 2000 g/ha (Sinapis alba; preemergence, 2.0 kg/ha): 98%

c1ccc(N2C3C4CC(C5N=NC45)C32)cc1 (stereo not drawn) [drawing 411]
percentage damage (Cyperus esculentus; 2.0 kg/ha): 45 percentage damage
percentage damage (Cyperus esculentus; 4.0 kg/ha): 60 percentage damage
percentage damage (Euphorbia spp.; 2.0 kg/ha): 90 percentage damage
percentage damage (Euphorbia spp.; 4.0 kg/ha): 100 percentage damage
percentage damage (Cynodon dactylon; 2.0 kg/ha): 65 percentage damage
percentage damage (Cynodon dactylon; 4.0 kg/ha): 90 percentage damage
pest or weed control at 2000 g/ha (Alopecurus myosuroides): 70%
pest or weed control at 4000 g/ha (Alopecurus myosuroides): 83%
percentage damage (Digitaria sanguinalis; 2.0 kg/ha): 70 percentage damage
percentage damage (Digitaria sanguinalis; 4.0 kg/ha): 100 percentage damage
percentage damage (Ipomoea spp.; 4.0 kg/ha): 29 percentage damage

c1ccc(CN2N=NC3C4CC(C5N=NC45)C32)cc1 (stereo not drawn) [drawing 417]
percentage damage (Setaria faberii; 2.0 kg/ha): 80 percentage damage
percentage damage (Setaria faberii; 4.0 kg/ha): 90 percentage damage
percentage damage (Sorghum halepense; 2.0 kg/ha): 90 percentage damage
percentage damage (Sorghum halepense; 4.0 kg/ha): 90 percentage damage
pest or weed control at 2000 g/ha (Sinapis alba; preemergence, 2.0 kg/ha): 80%
pest or weed control at 4000 g/ha (Sinapis alba; preemergence, 4.0 kg/ha): 95%
